According to PMC8840619, “Conjugation of Palbociclib with MHI-148 Has an Increased Cytotoxic Effect for Breast Cancer Cells and an Altered Mechanism of Action” (Molecules, 2022):
Like-named read-outs stand apart in the source and are kept apart here. Values belong to the compound of their own block, whether it stands above or below them.

What was measured:
51D1 [1] = test: WST-1 cell viability assay; type: cell-based, Chinese hamster; conditions: for IC50: 3 days of treatment, mean ± SEM; for EC50: Supplementary Table S1
Procedure: (§1) As described previously, 3000 cells per well were seeded in 96-well plates and incubated in the presence of varying concentrations of drugs for three days. Cell proliferation was measured by thymidine uptake assay, cell growth by sulforhodamine B (SRB) colorimetric assay, and cell viability by WST-1 assay, as previously described.
(§2) For viability, […] activity was measured using a water-soluble tetrazolium salt (WST-1) (purchased from Roche, Basel, Switzerland) after drug treatment for 3 days. The stable tetrazolium salt WST-1 is cleaved to a soluble formazan by a complex cellular mechanism that occurs primarily at the cell surface. This bio-reduction is largely dependent on the glycolytic production of NAD(P)H in viable cells. Therefore, the amount of formazan dye formed directly correlates with the number of metabolically active cells in the culture.

51D1.3 [2] = test: WST-1 cell viability assay; type: cell-based, Chinese hamster; conditions: for IC50: 3 days of treatment, mean ± SEM; for EC50: Supplementary Table S1
Procedure: as §1, §2

51D1 [3] = test: [3H]-thymidine incorporation cell proliferation assay; type: cell-based, Chinese hamster; conditions: 3 days of treatment, mean ± SEM
Procedure: as §1
(§3) Briefly, for the proliferation assay, [^3H]-thymidine (0.04 μCi) was added to each well and plates were incubated for 5 h, after which the cells were harvested onto glass–fiber filters using an automated TomTec harvester. Filters were incubated with Betaplate Scint and [^3H]-thymidine incorporation was measured in a Trilux/Betaplate counter. Cell proliferation was determined by the percentage incorporation of [^3H]-thymidine.

51D1.3 [4] = test: as above; type: cell-based, Chinese hamster; conditions: 3 days of treatment, mean ± SEM
Procedure: as §1, §3

MCF-7 [5] = test: SRB cell growth assay; type: cell-based, human; conditions: for IC50: 3 days of treatment, mean ± SEM
Procedure: as §1
(§4) The SRB colorimetric assay, which is based on the measurement of cellular protein content, was used to measure cell density. After drug treatment for 3 days, cells were fixed with 10% (wt/vol) trichloroacetic acid and stained for 30 min, and the excess dye was removed by washing repeatedly with 1% (vol/vol) acetic acid. The protein-bound dye was dissolved in Tris base solution (10 mM) for optical density determination at 510 nm using a microplate reader. Optimal cell densities were previously determined to select initial cell densities that ensured that cells were in logarithmic phase for the experiments.

HEK293 [6] = test: SRB cell growth assay; type: cell-based, human; conditions: 3 days of treatment, mean ± SEM
Procedure: as §1, §4

MDA-MB-231 [7] = test: SRB cell growth assay; type: cell-based, human; conditions: for IC50: 3 days of treatment, mean ± SEM
Procedure: as §1, §4

MCF-7 [8] = test: [3H]-thymidine incorporation cell proliferation assay; type: cell-based, human; conditions: 3 days of treatment, mean ± SEM
Procedure: as §1, §3

HEK293 [9] = test: as above; type: cell-based, human; conditions: 3 days of treatment, mean ± SEM
Procedure: as §1, §3

MDA-MB-231 [10] = test: as above; type: cell-based, human; conditions: for IC50: MDA-MB-231, 3 days of treatment, mean ± SEM
Procedure: as §1, §3

[11] = Absorbance spectra in DMSO; type: physicochemical; conditions: 25 °C
Procedure: The absorbance and fluorescence emission spectra of up to 7 three-fold serial dilutions of MHI-148 and MHI-palbociclib in DMSO, ranging from […], were acquired at 25 °C.
• (a) Absorbance spectra of the test compound solutions (200 μL) plated in a 96-well polystyrene flat-bottom transparent microplate were acquired on a quad monochromator-equipped microplate reader Enspire 2300 (Perkin-Elmer; Singapore) from 650 nm to 900 nm in 1 nm increments. • (b) Fluorescence emission spectra of the compound solutions in a 2 mL semi-micro quartz cuvette were measured on a FP-8600 spectrofluorometer (JASCO; Japan) between 790 nm and 850 nm in 1 nm increments at the excitation wavelength of 780 nm. The fluorescence emission was measured at a high sensitivity of the instrument, with an excitation and emission bandwidth of 5 nm, a 50 ms response time, and a scan speed of 1000 nm per minute.

MCF-7 [12] = test: WST-1 cell viability assay; type: cell-based, human; conditions: for IC50: 3 days of treatment, mean ± SEM; for EC50: MCF7, Supplementary Table S1
Procedure: as §1, §2

HEK293 [13] = test: WST-1 cell viability assay; type: cell-based, human; conditions: for IC50: 3 days of treatment, mean ± SEM; for EC50: Supplementary Table S1
Procedure: as §1, §2

MDA-MB-231 [14] = test: WST-1 cell viability assay; type: cell-based, human; conditions: for IC50: 3 days of treatment, mean ± SEM; for EC50: Supplementary Table S1
Procedure: as §1, §2

51D1 [15] = test: SRB cell growth assay; type: cell-based, Chinese hamster; conditions: 3 days of treatment, mean ± SEM
Procedure: as §1, §4

51D1.3 [16] = test: SRB cell growth assay; type: cell-based, Chinese hamster; conditions: 3 days of treatment, mean ± SEM
Procedure: as §1, §4

[17] = Behaviour in aqueous environments (solubility observation); type: physicochemical; conditions: high concentration
MDA-MB-231 cells [18] = test: Flow cytometry cell cycle analysis (DNA content, PI); type: cell-based, human; conditions: 500 nM for 24 h, untreated cells 48%
Procedure: As previously described, cells (1 × 10^6 cells) were grown in six-well plates and incubated with drugs for 24 h. Cells were harvested, washed with 1% FBS/phosphate-buffered saline (PBS), resuspended in 200 μL of PBS, fixed in 2 mL of ice-cold 100% ethanol, and stored overnight at −20 °C. The cells were washed and resuspended in 1 mL of 1% FBS/PBS, containing RNase (1 μg/mL) and propidium iodide (PI) (10 μg/mL), for 30 min at room temperature. DNA content was determined using […] by PI staining based on a total of 25,000 acquired events on a BD Biosciences Accuri C6 flow cytometer, and cell cycle distribution was analysed using FlowJo version 10.7.2.

MDA-MB-231 cells [19] = test: Propidium iodide staining of dying cells; type: cell-based, human; conditions: 1 µM for 24 h
Procedure: Cells (1 × 10^6) were incubated with drugs for 24 h. Cells were next incubated with 50 μg/mL PI in growth media for 15 min at room temperature and protected from light. Cell death was monitored by fluorescence staining of DNA by PI and analysed by fluorescent microscopy using a Floid imaging station (460× magnification).

MDA-MB-231 [20] = system: MDA-MB-231; set-up: method as in earlier work; conditions: different proliferation assay, ref 21 (Finn et al.), read-out: IC50 proliferation, previously reported; cited from earlier work
MDA-MB-231 [21] = conditions: data from Finn et al.
MCF-7 [22] = system: MCF-7; set-up: method as in earlier work; conditions: different proliferation assay, ref 21 (Finn et al.), read-out: IC50 proliferation, previously reported; cited from earlier work
MDA-MB-231 [23] = system: MDA-MB-231; set-up: method as in PMID 30370249; conditions: read-out: IC50 proliferation; cited from earlier work
MCF-7 [24] = system: MCF-7; set-up: method as in PMID 30370249; conditions: read-out: IC50 proliferation; cited from earlier work

IC50 (MCF-7 [5]; Homo sapiens, MCF7, 72 h): > 2500 nM | IC50 (MDA-MB-231 [7]; Homo sapiens, 72 h): > 2500 nM | IC50 (MCF-7 [8]; Homo sapiens, MCF7, 72 h): > 2500 nM | IC50 (MDA-MB-231 [10]; Homo sapiens, 72 h): > 2500 nM | Absorbance λmax [11]: 797 nm | IC50 (MCF-7 [12]; Homo sapiens, MCF7, 72 h): > 2500 nM | EC50 (MCF-7 [12]; Homo sapiens): > 2500 nM | IC50 (MDA-MB-231 [14]; Homo sapiens, 72 h): > 2500 nM | EC50 (MDA-MB-231 [14]; Homo sapiens): > 2500 nM
Compound: CC1(C)C(/C=C/C2=C(Cl)C(=C/C=C3/N(CCCCCC(=O)O)c4ccccc4C3(C)C)/CCC2)=[N+](CCCCCC(=O)O)c2ccccc21.[Br-] [MHI-148, 1-(5-Carboxypentyl)-2-((E)-2-((E)-3-(2-((E)-1-(5-carboxypentyl)-3,3-dimethylindolin-2-ylidene)ethylidene)-2-chlorocyclohex-1-en-1-yl)vinyl)-3,3-dimethyl-3H-indol-1-ium bromide]
IC50 (51D1 [1]; Cricetulus griseus, 72 h): > 2500 nM | EC50 (51D1 [1]; Cricetulus griseus): > 2500 nM | IC50 (51D1.3 [2]; Cricetulus griseus, 72 h): > 2500 nM | EC50 (51D1.3 [2]; Cricetulus griseus): > 2500 nM | IC50 (51D1 [3]; Cricetulus griseus, 72 h): > 2500 nM | IC50 (51D1.3 [4]; Cricetulus griseus, 72 h): > 2500 nM | IC50 (HEK293 [6]; Homo sapiens, 72 h): > 2500 nM | IC50 (HEK293 [9]; Homo sapiens, 72 h): > 2500 nM | IC50 (HEK293 [13]; Homo sapiens, 72 h): > 2500 nM | EC50 (HEK293 [13]; Homo sapiens): > 2500 nM | IC50 (51D1 [15]; Cricetulus griseus, 72 h): > 2500 nM | IC50 (51D1.3 [16]; Cricetulus griseus, 72 h): > 2500 nM

Compound: CC(=O)c1c(C)c2cnc(Nc3ccc(N4CCN(C(=O)CCCCCN5/C(=C/C=C6\CCCC(/C=C/C7=[N+](CCCCCC(=O)N8CCN(c9ccc(Nc%10ncc%11c(C)c(C(C)=O)c(=O)n(C%12CCCC%12)c%11n%10)nc9)CC8)c8ccccc8C7(C)C)=C6Cl)C(C)(C)c6ccccc65)CC4)cn3)nc2n(C2CCCC2)c1=O.[Br-] [MHI-palbociclib]
IC50 (51D1 [1]): 197 ± 15.7 nM | EC50 (51D1 [1]): 265 nM | IC50 (51D1.3 [2]): 401 ± 89 nM | EC50 (51D1.3 [2]): 471 nM | IC50 (51D1 [3]): 205 ± 4.6 nM | IC50 (51D1.3 [4]): 217 ± 8.7 nM | Growth inhibitory effect compared with combination of unconjugated palbociclib and MHI-148 (MCF-7 [5]; 2.5 μM, 3 days, t-test p = 0.002): significantly greater | IC50 (MCF-7 [5]): 506 ± 93.6 nM | IC50 (HEK293 [6]): 171 ± 7.9 nM | Growth inhibitory effect compared with combination of unconjugated palbociclib and MHI-148 (MDA-MB-231 [7]; 2.5 μM, 3 days, t-test p = 0.003): significantly greater | IC50 (MDA-MB-231 [7]): 683 ± 29.6 nM | IC50 (MCF-7 [8]): 215.4 ± 0.8 nM | IC50 (HEK293 [9]): 170 ± 4.1 nM | IC50 (MDA-MB-231 [10]): 170 ± 9.7 nM | Absorbance λmax [11]: 800 nm | Behaviour in aqueous environments [17]: rapidly precipitates in aqueous environments | IC50 (MCF-7 [12]): 845 ± 34.3 nM | IC50 (HEK293 [13]): 418 ± 68.3 nM | EC50 (HEK293 [13]): 544 nM | IC50 (MDA-MB-231 [14]): 1020 ± 150 nM | EC50 (MDA-MB-231 [14]): 872 nM | G1 cell cycle arrest (proportion of cells in G1) (MDA-MB-231 cells [18]): 55% | IC50 (51D1 [15]): 187 ± 3.9 nM | IC50 (51D1.3 [16]): 164 ± 6.8 nM | PI staining of dying cells (cytotoxic effect) (MDA-MB-231 cells [19]): increased PI staining and reduced cell number

Compound: CC(=O)c1c(C)c2cnc(Nc3ccc(N4CCNCC4)cn3)nc2n(C2CCCC2)c1=O [Palbociclib]
IC50 (51D1 [1]; Cricetulus griseus, 72 h): > 2500 nM | EC50 (51D1 [1]; Cricetulus griseus): > 2500 nM | IC50 (51D1.3 [2]; Cricetulus griseus, 72 h): > 2500 nM | EC50 (51D1.3 [2]; Cricetulus griseus): > 2500 nM | IC50 (MCF-7 [5]; Homo sapiens, MCF7, 72 h): > 2500 nM | IC50 (HEK293 [6]; Homo sapiens, 72 h): > 2500 nM | IC50 (MDA-MB-231 [7]; Homo sapiens, 72 h): > 2500 nM | IC50 (MCF-7 [8]; Homo sapiens, MCF7, 72 h): 29.1 ± 8.6 nM | IC50 (MDA-MB-231 [10]; Homo sapiens, 72 h): 72.2 ± 2.8 nM | Fold difference of the IC50 of the two cell lines (MDA-MB-231 vs MCF-7) (MDA-MB-231 [10]; thymidine incorporation, own data): 2.5 fold | IC50 (MCF-7 [12]; Homo sapiens, MCF7, 72 h): > 2500 nM | EC50 (MCF-7 [12]; Homo sapiens): > 2500 nM | IC50 (HEK293 [13]; Homo sapiens, 72 h): > 2500 nM | EC50 (HEK293 [13]; Homo sapiens): > 2500 nM | IC50 (MDA-MB-231 [14]; Homo sapiens, 72 h): > 2500 nM | EC50 (MDA-MB-231 [14]; Homo sapiens): > 2500 nM | IC50 (MDA-MB-231 [20]): 432 ± 16.1 nM | Fold difference of the IC50 of the two cell lines (MDA-MB-231 vs MCF-7) (MDA-MB-231 [21]): 2.9 fold | G1 cell cycle arrest (proportion of cells in G1) (MDA-MB-231 cells [18]): 87% | IC50 (51D1 [15]; Cricetulus griseus, 72 h): > 2500 nM | IC50 (51D1.3 [16]; Cricetulus griseus, 72 h): > 2500 nM | PI staining of dying cells (cytotoxic effect) (MDA-MB-231 cells [19]): minimal PI staining | IC50 (MCF-7 [22]): 148 ± 25.7 nM

Compound: CC(=O)O[C@H]1C(=O)[C@@]2(C)[C@H]([C@H](OC(=O)c3ccccc3)[C@]3(O)C[C@H](OC(=O)[C@H](O)[C@@H](NC(=O)c4ccccc4)c4ccccc4)C(C)=C1C3(C)C)[C@]1(OC(C)=O)CO[C@@H]1C[C@@H]2O [paclitaxel]
IC50 (MDA-MB-231 [23]): 5.8 ± 1.13 nM | IC50 (MCF-7 [24]): 9.05 ± 0.04 nM
